Measurements as given in paper PMC7352759, “S(+)-(2E)-N-(2-Hydroxypropyl)-3-Phenylprop-2-Enamide (KM-568): A Novel Cinnamamide Derivative with Anticonvulsant Activity in Animal Models of Seizures and Epilepsy” (International Journal of Molecular Sciences, 2020).

What was measured:
[1] = Ames microplate format (MPF) assay, TA1537; conditions: Salmonella typhimurium
Source text: (§1) The Ames microplate format (MPF) mutagenicity assay (Xenometrix, Allschwil, Switzerland) was used to test KM-568 mutagenicity. Growth, exposure, and indicator media, positive control chemicals, and four Salmonella typhimurium strains TA98, TA100, TA1535 and TA1537 were included in the kit. TA100 and TA1535 strains detect base substitution mutations, whereas TA98 and TA1537 indicate frameshift mutations. The strains of bacteria included in a kit are in compliance with the Organization for Economic Cooperation and Development (OECD) 471 Guideline for Testing of Chemicals.
(§2) The assay is a liquid microplate modification of the traditional Salmonella test. During the procedure, bacteria are exposed to different concentrations of a test compound for 90 min in a medium containing sufficient histidine to support cell divisions. Then, the cultures are diluted in a pH indicator medium lacking histidine and aliquoted into 48 wells of a 384-well plate. Within 2 days, bacteria that have undergone reversion to amino acid prototrophy will form colonies. Products of bacteria metabolism reduce pH of the medium, changing the color of wells from purple to yellow.
(§3) The test procedure provided by Xenometrix and described in detail elsewhere was followed. Bacterial strains were grown overnight (14–16 h) in exposure medium in a shaker incubator and then exposed to KM-568 in 24-well plates for 90 min at 37 °C with agitation. Final KM-568 concentrations in the assay were 0.1, 0.2, and 0.5 mM. After preincubation, the cultures were diluted in the indicator medium and the contents of each 24-well culture were transferred to 48 wells on a 384-well plate and incubated further for 48 h at 37 °C without agitation. After the exposure, the number of wells containing bacteria was scored for yellow wells. […] Pure DMSO was used as a negative control. All doses were performed in triplicate.
(§4) The fold increase of revertants relative to the solvent control was determined by dividing the mean number of positive wells at each dose by the solvent control at baseline. The solvent control at baseline was calculated as the mean number of positive wells in the solvent control plus one standard deviation (SD). When an increase of more than twofold relative to the baseline at more than one dose with a dose–response was observed, the sample was classified as positive, whereas when no response > 2 times the baseline and no dose–response was stated, the sample was classified as negative.

[2] = Ames microplate format (MPF) assay, TA98; conditions: Salmonella typhimurium
Source text: as §1, §2, §3, §4

[3] = tested on: mice; conditions: mice i.p.; cited from earlier work
[4] = tested on: mice; conditions: mice i.p.; cited from earlier work; remark: listed apart in the source
[5] = tested on: rats; design: method as in doi:10.2174/157018012798192982; conditions: rats p.o.; cited from earlier work
[6] = tested on: Salmonella typhimurium TA1535; assay: Ames microplate format (MPF) assay, TA1535; conditions: TA1535, positive control at 100 µg/mL
Source text: as §1, §2, §3, §4

In the case of `Nc1c2ccccc2nc2ccccc12` [9-AAc, 9-aminoacridine, reference compound], the fold induction at 90 min, 15 µg/mL [1] is reported as 48.
Work on `O=[N+]([O-])c1ccc2c(c1)Cc1ccccc1-2` [2-NF, 2-nitrofluorene, reference compound] yielded a fold induction at 90 min, 2 µg/mL [2] of 6.4.
In the case of `CC(O)CNC(=O)/C=C/c1ccc(Cl)cc1` (stereo not drawn) [R,S-(2E)-3-(4-chlorophenyl)-N-(2-hydroxypropyl)prop-2-enamide], the “scMET ED50” value [3] is given as 102.2 mg/kg and the “MES ED50” value [4] is given as 55.6 mg/kg.
For `CC(O)CNC(=O)/C=C/c1ccccc1` (stereo not drawn) [R,S-(2E)-N-(2-hydroxypropyl)-3-phenylprop-2-enamide], the “MES (pharmacological parameter, ED50)” value [5] is listed as 22.8 mg/kg, the “scMET (pharmacological parameter, ED50)” value [3] is listed as 77.1 mg/kg and the “MES (pharmacological parameter, ED50)” value [4] is listed as 47.1 mg/kg.
In the case of `O=C(/C=C/c1ccccc1)N1CCCC(O)C1` (stereo not drawn) [R,S-(2E)-1-(3-hydroxypiperidin-1-yl)-3-phenylprop-2-en-1-one], the “scMET ED50” value [3] is listed as 82.3 mg/kg and the “MES ED50” value [4] is listed as 55.0 mg/kg.
With `NNc1ccn([C@@H]2O[C@H](CO)[C@@H](O)[C@H]2O)c(=O)n1` [N4-ACT, N-4-aminocytidine, reference compound] the “fold induction of the number of positive wells over baseline” value [6] was 14.7 fold.
For `Cc1ccccc1/C=C/C(=O)N[C@@H](C)CO` [S-(2E)-N-(1-hydroxypropan-2-yl)-3-(2-methylphenyl)prop-2-enamide], the “scMET ED50” value [3] is given as 58.4 mg/kg and the “MES ED50” value [4] is given as 42.6 mg/kg.
